Assay results as given in PubChem BioAssay AID504526 (Southern Research Specialized Biocontainment Screening …, 2011).
Values joined by “and” are separate entries in the source; they are usually repeats but may differ in a detail not shown here. Identical values can stand only once. Active and inactive are the calls of the source. The rule behind the calls is not given here.

tested on: RSV-infected cells, CPE inhibition (cell viability); test: inhibition of RSV-induced host cell death – synthesized compounds, set 6, dose response (AID 504526)

| Compound | IC50 |
| --- | --- |
| COc1ccccc1CNC(=O)C1CCN(S(=O)(=O)c2cccc3cccnc23)CC1 | > 50 µM (inactive) |
| Cc1ccc(C(C)(C)C)cc1NC(=O)[C@@H]1CCCN1S(=O)(=O)c1cccc2cccnc12 | > 50 µM (inactive) |
| COc1ccc(C)c(NC(=O)[C@@H]2CCCN2S(=O)(=O)c2cccc3cccnc23)c1 | 3.51 µM |
| COc1ccc(C)cc1NC(=O)[C@@H]1CCCN1S(=O)(=O)c1cccc2cccnc12 | > 50 µM (inactive) |
| Cc1ccc(Cl)c(NC(=O)[C@@H]2CCCN2S(=O)(=O)c2cccc3cccnc23)c1 | > 50 µM (inactive) |
| Cc1ccc(C)c(NC(=O)[C@@H]2CCCN2S(=O)(=O)c2cccc3cccnc23)c1 | 5.1 µM |
| COc1ccc(CNC(=O)C2CCN(S(=O)(=O)c3cccc4nonc34)CC2)cc1 | > 50 µM (inactive) |
| Cc1cccc(C)c1NC(=O)[C@@H]1CCCN1S(=O)(=O)c1cccc2cccnc12 | 34.6 µM |
| O=C(NCc1ccccc1Cl)C1CCN(S(=O)(=O)c2cccc3nonc23)CC1 | 6.9 µM |
| COCCCNC(=O)c1ccc(Cn2c(=O)c3ccc(Cl)cc3n(Cc3ccc(C)cc3)c2=O)cc1 | > 50 µM (inactive) |
| Cc1ccc(Cl)cc1NC(=O)[C@@H]1CCCN1S(=O)(=O)c1cccc2cccnc12 | 0.22 µM |
| COc1ccccc1NCC(=O)Nc1cc(S(=O)(=O)N2CCOCC2)ccc1N1CCOCC1 | > 50 µM (inactive) |
| COc1ccccc1CNC(=O)C1CCN(S(=O)(=O)c2cccc3scnc23)CC1 | > 50 µM (inactive) |
| Cc1ccc(C(F)(F)F)cc1NC(=O)[C@@H]1CCCN1S(=O)(=O)c1cccc2cccnc12 | > 50 µM (inactive) |
| COc1ccccc1CNC(=O)C1CCN(S(=O)(=O)c2cccc3nonc23)CC1 | 3.6 µM and 4.7 µM |
| COc1cccc(CNC(=O)C2CCN(S(=O)(=O)c3cccc4nonc34)CC2)c1 | > 50 µM (inactive) |
| COCCCNC(=O)c1ccc(Cn2c(=O)c3ccccc3n(Cc3ccccc3)c2=O)cc1 | > 50 µM (inactive) |
| Cc1ccc(C(C)C)cc1NC(=O)[C@@H]1CCCN1S(=O)(=O)c1cccc2cccnc12 | > 50 µM (inactive) |
| Cc1ccccc1CNC(=O)C1CCN(S(=O)(=O)c2cccc3nonc23)CC1 | > 50 µM (inactive) |
| COc1ccccc1CNC(=O)[C@@H]1CCCN1S(=O)(=O)c1cccc2cccnc12 | 18.8 µM |
| COc1ccccc1CNC(=O)C1CCN(Cc2cccc3nonc23)CC1 | > 50 µM (inactive) |
| COc1ccccc1CNC(=O)C1CCN(S(=O)(=O)c2ccccc2)CC1 | > 50 µM (inactive) |
| O=C(O)C1CC=CCC1C(=O)Nc1ccc(S(=O)(=O)N2CCCc3ccccc32)cc1 (centres undefined) | 31.4 µM |
| COCCNC(=O)c1ccc(Cn2c(=O)c3ccccc3n(Cc3ccc(C)cc3)c2=O)cc1 | 2.32 µM |
